Measurements reported in US20250288589A1, “PYRIDOPYRIMIDINES AND METHODS OF THEIR USE” (Kineta, Inc., priority 2021, published 2025).
Where a name gives a salt, the structure may show the parent alone.

Target: T1, full-length human PIKFYVE (Homo sapiens, UniProt Q9Y2I7, L932S/Q1183K/Q995L/S1033A/S696N/T998S)
T1 construct: A full-length human PIKFYVE [1-2098(end) amino acids and S696N, L932S, Q995L, T998S, S1033A and Q1183K; purchased Carna Biosciences; host or cells: baculovirus expression system
T1 sequence (Q9Y2I7 whole entry S696N/L932S/Q995L/T998S/S1033A/Q1183K): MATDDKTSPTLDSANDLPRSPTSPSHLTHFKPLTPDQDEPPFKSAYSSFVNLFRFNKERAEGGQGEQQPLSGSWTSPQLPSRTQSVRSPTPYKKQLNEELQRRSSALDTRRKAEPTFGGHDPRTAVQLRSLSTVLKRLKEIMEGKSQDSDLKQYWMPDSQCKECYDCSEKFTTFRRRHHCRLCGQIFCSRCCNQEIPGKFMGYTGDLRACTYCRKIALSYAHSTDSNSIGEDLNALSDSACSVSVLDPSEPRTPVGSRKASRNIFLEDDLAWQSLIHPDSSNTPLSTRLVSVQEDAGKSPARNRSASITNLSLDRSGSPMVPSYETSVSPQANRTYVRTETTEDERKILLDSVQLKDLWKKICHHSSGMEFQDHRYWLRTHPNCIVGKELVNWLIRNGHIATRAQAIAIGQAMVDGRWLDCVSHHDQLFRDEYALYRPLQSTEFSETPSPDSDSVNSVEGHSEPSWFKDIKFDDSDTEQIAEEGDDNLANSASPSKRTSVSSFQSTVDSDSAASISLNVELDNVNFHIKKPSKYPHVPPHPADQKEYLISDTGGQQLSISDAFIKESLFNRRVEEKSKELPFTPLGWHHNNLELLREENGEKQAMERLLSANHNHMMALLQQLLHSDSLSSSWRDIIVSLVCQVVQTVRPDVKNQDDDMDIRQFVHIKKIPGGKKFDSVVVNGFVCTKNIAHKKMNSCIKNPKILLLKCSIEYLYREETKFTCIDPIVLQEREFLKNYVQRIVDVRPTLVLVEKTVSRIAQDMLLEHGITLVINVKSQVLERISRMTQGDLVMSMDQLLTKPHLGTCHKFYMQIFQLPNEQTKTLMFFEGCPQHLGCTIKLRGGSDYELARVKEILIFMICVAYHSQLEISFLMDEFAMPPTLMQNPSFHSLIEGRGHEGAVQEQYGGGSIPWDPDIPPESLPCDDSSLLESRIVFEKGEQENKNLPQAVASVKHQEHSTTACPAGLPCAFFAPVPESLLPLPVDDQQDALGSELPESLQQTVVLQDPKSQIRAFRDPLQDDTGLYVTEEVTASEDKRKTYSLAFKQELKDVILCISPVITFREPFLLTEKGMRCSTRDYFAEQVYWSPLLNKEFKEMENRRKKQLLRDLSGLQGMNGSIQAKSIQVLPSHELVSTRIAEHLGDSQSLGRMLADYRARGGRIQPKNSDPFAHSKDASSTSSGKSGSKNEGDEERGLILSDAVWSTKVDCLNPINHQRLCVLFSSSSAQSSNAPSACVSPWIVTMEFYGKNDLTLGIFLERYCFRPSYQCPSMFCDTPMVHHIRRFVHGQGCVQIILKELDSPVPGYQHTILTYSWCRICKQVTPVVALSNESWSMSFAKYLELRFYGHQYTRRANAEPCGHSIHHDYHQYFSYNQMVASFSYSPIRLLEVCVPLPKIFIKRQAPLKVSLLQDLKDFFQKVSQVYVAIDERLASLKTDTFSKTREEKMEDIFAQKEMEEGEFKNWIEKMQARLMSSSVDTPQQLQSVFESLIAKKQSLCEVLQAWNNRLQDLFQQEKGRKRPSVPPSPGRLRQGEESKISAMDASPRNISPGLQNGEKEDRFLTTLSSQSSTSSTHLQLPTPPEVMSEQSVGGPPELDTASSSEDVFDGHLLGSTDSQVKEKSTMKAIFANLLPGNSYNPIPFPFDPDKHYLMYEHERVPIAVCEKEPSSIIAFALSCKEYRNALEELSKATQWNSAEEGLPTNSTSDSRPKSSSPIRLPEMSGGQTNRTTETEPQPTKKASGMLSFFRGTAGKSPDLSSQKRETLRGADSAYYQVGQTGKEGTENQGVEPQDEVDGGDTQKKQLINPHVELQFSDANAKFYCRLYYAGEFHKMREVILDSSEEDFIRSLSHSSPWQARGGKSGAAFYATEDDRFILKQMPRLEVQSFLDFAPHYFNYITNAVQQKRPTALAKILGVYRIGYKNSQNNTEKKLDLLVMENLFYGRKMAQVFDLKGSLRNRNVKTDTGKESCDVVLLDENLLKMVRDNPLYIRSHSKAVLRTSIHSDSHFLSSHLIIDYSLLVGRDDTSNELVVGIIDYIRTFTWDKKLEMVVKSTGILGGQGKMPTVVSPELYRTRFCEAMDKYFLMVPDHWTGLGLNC
Assay: PIKfyve biochemical assay (ADP-Glo Kinase assay, Carna Biosciences)
Conditions: GST-PIKFYVE, 10 μM to 3 nM in duplicate, read-out: hPIKfyve IC50
Source text: (§1) PIKfyve Biochemical Assay. The biochemical PIKFyve inhibition assays were run by Carna Biosciences according to proprietary methodology based on the Promega ADP-Glo™ Kinase assay. A full-length human PIKFYVE [1-2098(end) amino acids and S696N, L932S, Q995L, T998S, S1033A and Q1183K of the protein having the sequence set forth in NCBI Reference Sequence No. NP_055855.2] was expressed as N-terminal GST-fusion protein (265 kDa) using baculovirus expression system. GST-PIKFYVE was purified by using glutathione sepharose chromatography and used in an ADP-Glo™ Kinase assay (Promega). Reactions were set up by adding the test compound solution, substrate solution, ATP solution and kinase solution, each at 4× final concentrations. Reactions were prepared with assay buffer (50 mM MOPS, 1 mM DTT, pH7.2), mixed, and incubated in black 384 well polystyrene plates for 1 hour at room temperature. ADP-Glo™ reagent was then added for 40 minutes, followed by kinase detection reagent for an additional 40 minutes. The kinase activity was evaluated by detecting relative light units on a luminescence plate reader. Samples were run in duplicate from 10 μM to 3 nM. […] IC50 values were calculated from concentration vs % inhibition curves by fitting to a four-parameter logistic curve.
as §1, with “The” for “PIKfyve Biochemical Assay. The”, “accession number” for “the protein having the sequence set forth in NCBI Reference Sequence No.”, “uM” for “μM”

IC50 [nM]	SMILES
100 to 1000	Brc1cnc2c(N3CCOCC3)nc(-n3ccc(-c4ccccc4)n3)nc2c1 [Compound 33, 4-(7-bromo-2-(3-phenyl-1H-pyrazol-1-yl)pyrido[3,2-d]pyrimidin-4-yl)morpholine]
1000 to 10000	Cc1cnc(-c2ccccc2)nc1-c1nc(N2CCOCC2)c2ncccc2n1 [Compound 96, 4-(2-(5-methyl-2-phenylpyrimidin-4-yl)pyrido[3,2-d]pyrimidin-4-yl)morpholine]
< 10	c1ccc(-c2cnn(-c3nc(N4CCOCC4)c4ncc(C5CCOCC5)cc4n3)c2)cc1 [Compound 10, 4-[2-(4-phenylpyrazol-1-yl)-7-tetrahydropyran-4-yl-pyrido[3,2-d]pyrimidin-4-yl]morpholine]
1000 to 10000	c1cncc(-c2ccn(-c3nc(N4CCOCC4)c4ncccc4n3)n2)c1 [Compound 13, 4-(2-(3-(pyridin-3-yl)-1H-pyrazol-1-yl)pyrido[3,2-d]pyrimidin-4-yl)morpholine]
10 to 100	c1ccc(-c2cnn(-c3nc(N4CCOCC4)c4ncccc4n3)n2)cc1 [Compound 75, 4-(2-(4-phenyl-2H-1,2,3-triazol-2-yl)pyrido[3,2-d]pyrimidin-4-yl)morpholine hydrochloride]
100 to 1000	COc1ccc(Cc2ccn(-c3nc(N4CCOCC4)c4ncc(C5=CCOCC5)cc4n3)n2)cc1 [Compound 35, 4-(7-(3,6-dihydro-2H-pyran-4-yl)-2-(3-(4-methoxybenzyl)-1H-pyrazol-1-yl)pyrido[3,2-d]pyrimidin-4-yl)morpholine]
< 10	c1ccc(-c2cnn(-c3nc(N4CCOCC4)c4ncc(N5CCOCC5)cc4n3)c2)cc1 [Compound 40, 4,4′-(2-(4-phenyl-1H-pyrazol-1-yl)pyrido[3,2-d]pyrimidine-4,7-diyl)dimorpholine]
< 10	COc1cnc2c(N3CCOCC3)nc(-n3ccc(-c4cccc(C)c4)n3)nc2c1 [Compound 54, 4-(7-methoxy-2-(3-m-tolyl-1H-pyrazol-1-yl)pyrido[3,2-d]pyrimidin-4-yl)morpholine]
1000 to 10000	c1cnc2c(N3CCOCC3)nc(-c3ccnc(-c4ccoc4)n3)nc2c1 [Compound 98, 4-(2-(2-(furan-3-yl)pyrimidin-4-yl)pyrido[3,2-d]pyrimidin-4-yl)morpholine]
10 to 100	c1ccc(-c2ccn(-c3nc(N4CCOCC4)c4ncc(-c5ccncc5)cc4n3)n2)cc1 [Compound 48, 4-(2-(3-phenyl-1H-pyrazol-1-yl)-7-(pyridin-4-yl)pyrido[3,2-d]pyrimidin-4-yl)morpholine]
10 to 100	c1ccc(-c2nccc(-c3nc(N4CCOCC4)c4ncccc4n3)n2)cc1 [Compound 90, 4-(2-(2-phenylpyrimidin-4-yl)pyrido[3,2-d]pyrimidin-4-yl)morpholine]
100 to 1000	c1ccc2c(c1)cnn2-c1nc(N2CCOCC2)c2ncccc2n1 [Compound 109, 4-(2-indazol-1-ylpyrido[3,2-d]pyrimidin-4-yl)morpholine]
10 to 100	c1ccc(-c2nccc(-c3nc(N4CCOCC4)c4ncc(-c5cc[nH]n5)cc4n3)n2)cc1 [Compound 105, 4-(2-(2-phenylpyrimidin-4-yl)-7-(1H-pyrazol-3-yl)pyrido[3,2-d]pyrimidin-4-yl)morpholine]
> 10000	CC(C)c1ccn(-c2nc(N3CCOCC3)c3ncccc3n2)n1 [Compound 18, 4-(2-(3-isopropyl-1H-pyrazol-1-yl)pyrido[3,2-d]pyrimidin-4-yl)morpholine]
> 10000	Clc1nc(N2CCOCC2)c2ncc(Cc3cccnc3)cc2n1 [Compound 128, 4-(2-chloro-7-(pyridin-3-ylmethyl)pyrido[3,2-d]pyrimidin-4-yl)morpholine]
100 to 1000	c1ccc(-c2ccn(-c3nc(N4CCOCC4)c4ncc(C5CCOCC5)cc4n3)n2)nc1 [Compound 21, 4-[2-[3-(2-pyridyl)pyrazol-1-yl]-7-tetrahydropyran-4-yl-pyrido[3,2-d]pyrimidin-4-yl]morpholine]
100 to 1000	Oc1cccc(/C=N/Nc2nc(N3CCOCC3)c3ncccc3n2)c1 [Compound 114, (E)-3-((2-(4-morpholinopyrido[3,2-d]pyrimidin-2-yl)hydrazono)methyl)phenol]

IC50 [nM]	SMILES
1000 to 10000	c1cnc2c(N3CCOCC3)nc(-n3ccc(-c4ccncc4)n3)nc2c1 [Compound 14, 4-(2-(3-(pyridin-4-yl)-1H-pyrazol-1-yl)pyrido[3,2-d]pyrimidin-4-yl)morpholine]
10 to 100	c1ccc(-c2ccn(-c3nc(N4CCOCC4)c4ncc(N5CCOCC5)cc4n3)n2)cc1 [Compound 41, 4-[4-morpholino-2-(3-phenylpyrazol-1-yl)pyrido[3,2-d]pyrimidin-7-yl]morpholine]
10 to 100	c1ccc(-c2ccn(-c3nc(N4CCOCC4)c4ncc(C5CC5)cc4n3)n2)cc1 [Compound 55, 4-[7-cyclopropyl-2-(3-phenylpyrazol-1-yl)pyrido[3,2-d]pyrimidin-4-yl]morpholine]
< 10	COc1cccc(-c2ccn(-c3nc(N4CCOCC4)c4ncc(C5=CCOCC5)cc4n3)n2)c1 [Compound 16, 4-(7-(3,6-dihydro-2H-pyran-4-yl)-2-(3-(3-methoxyphenyl)-1H-pyrazol-1-yl)pyrido[3,2-d]pyrimidin-4-yl)morpholine]
10 to 100	CN1CCC(c2cnc3c(N4CCOCC4)nc(-n4ccc(-c5ccccc5)n4)nc3c2)CC1 [Compound 37, 4-(7-(1-methylpiperidin-4-yl)-2-(3-phenyl-1H-pyrazol-1-yl)pyrido[3,2-d]pyrimidin-4-yl)morpholine]
10 to 100	Cc1cnc2c(N3CCOCC3)nc(-n3ccc(-c4ccccc4)n3)nc2c1 [Compound 34, 4-(7-methyl-2-(3-phenyl-1H-pyrazol-1-yl)pyrido[3,2-d]pyrimidin-4-yl)morpholine]
100 to 1000	Cc1ccc2c(c1)nnn2-c1nc(N2CCOCC2)c2ncccc2n1 [Compound 76, 4-(2-(5-methyl-1H-benzo[d][1,2,3]triazol-1-yl)pyrido[3,2-d]pyrimidin-4-yl)morpholine]
1000 to 10000	COc1cncc(-c2cnc3c(N4CCOCC4)nc(-c4ccn(CC(F)(F)F)n4)nc3c2)c1 [Compound 65, 4-(7-(5-methoxypyridin-3-yl)-2-(1-(2,2,2-trifluoroethyl)-1H-pyrazol-3-yl)pyrido[3,2-d]pyrimidin-4-yl)morpholine]
> 10000	Cc1cc(-c2ccccc2)nn1-c1nc(N2CCOCC2)c2ncccc2n1 [Compound 39, 4-(2-(5-methyl-3-phenyl-1H-pyrazol-1-yl)pyrido[3,2-d]pyrimidin-4-yl)morpholine]
> 10000	c1cc(-c2ccn(-c3nc(N4CCOCC4)c4ncc(C5CCOCC5)cc4n3)n2)ncn1 [Compound 53, 4-[2-(3-pyrimidin-4-ylpyrazol-1-yl)-7-tetrahydropyran-4-yl-pyrido[3,2-d]pyrimidin-4-yl]morpholine]
10 to 100	Oc1ccc(-c2ccccc2)nc1-c1nc(N2CCOCC2)c2ncccc2n1 [Compound 108, 2-(4-morpholinopyrido[3,2-d]pyrimidin-2-yl)-6-phenylpyridin-3-ol]
100 to 1000	c1ccc(-c2cncc(-c3nc(N4CCOCC4)c4ncccc4n3)n2)cc1 [Compound 97, 4-(2-(6-phenylpyrazin-2-yl)pyrido[3,2-d]pyrimidin-4-yl)morpholine]
10 to 100	c1ccc(-c2nccc(-c3nc(N4CCOCC4)c4ncc(N5CCOCC5)cc4n3)n2)cc1 [Compound 95, 4,4′-(2-(2-phenylpyrimidin-4-yl)pyrido[3,2-d]pyrimidine-4,7-diyl)dimorpholine]
100 to 1000	CC1COCCN1c1nc(-n2ccc(-c3ccccc3)n2)nc2cccnc12 (stereo not shown) [Compound 31, 3-methyl-4-(2-(3-phenyl-1H-pyrazol-1-yl)pyrido[3,2-d]pyrimidin-4-yl)morpholine]
> 10000	c1cc(Oc2nc(N3CCOCC3)c3ncccc3n2)cc(-c2cn[nH]c2)c1 [Compound 47, 4-(2-(3-(1H-pyrazol-4-yl)phenoxy)pyrido[3,2-d]pyrimidin-4-yl)morpholine]
10 to 100	COc1cccc(-c2ccn(-c3nc(N4CCOCC4)c4ncccc4n3)n2)c1 [Compound 27, 4-(2-(3-(3-methoxyphenyl)-1H-pyrazol-1-yl)pyrido[3,2-d]pyrimidin-4-yl)morpholine]
10 to 100	Cc1cccc(-c2ncc(O)c(-c3nc(N4CCOCC4)c4ncccc4n3)n2)c1 [Compound 103, 4-(4-morpholinopyrido[3,2-d]pyrimidin-2-yl)-2-m-tolylpyrimidin-5-ol]
